From PubChem BioAssay (NCI)
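All cell lines were grown in 96-well plates and treated with compound for 48 hours. Abbreviation: GI50, concentration required for 50% inhibition of growth. TGI: concentration producing complete growth inhibition.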

Columns and labels:
Assay in all cases: growth of human tumour cells (NCI), 48 h
[1] = system: 786-0 renal
[2] = system: A498 renal
[3] = system: A549 NSCLC
[4] = system: ACHN renal
[5] = system: BT-549 breast
[6] = system: CAKI-1 renal
[7] = system: CCRF-CEM leukemia
[8] = system: COLO 205 colon
[9] = system: DU-145 prostate
[10] = system: EKVX NSCLC
[11] = system: HCC-2998 colon
[12] = system: HCT-116 colon
[13] = system: HCT-15 colon
[14] = system: HL-60(TB) leukemia
[15] = system: HOP-62 NSCLC
[16] = system: HOP-92 NSCLC
[17] = system: HS 578T breast
[18] = system: HT29 colon
[19] = system: IGROV1 ovarian
[20] = system: K-562 leukemia
[21] = system: KM12 colon
[22] = system: LOX IMVI melanoma
[23] = system: M14 melanoma
[24] = system: MALME-3M melanoma
[25] = system: MCF7 breast
[26] = system: MDA-MB-231 breast
[27] = system: MDA-MB-435
[28] = system: MOLT-4 leukemia
[29] = system: NCI-H226 lung
[30] = system: NCI-H23 lung
[31] = system: NCI-H460 lung
[32] = system: NCI-H522 lung
[33] = system: NCI/ADR-RES ovarian
[34] = system: OVCAR-3 ovarian
[35] = system: OVCAR-4 ovarian
[36] = system: OVCAR-5 ovarian
[37] = system: OVCAR-8 ovarian
[38] = system: PC-3 prostate
[39] = system: RPMI-8226 leukemia
[40] = system: RXF 393 renal
[41] = system: SF-268 CNS
[42] = system: SF-295 CNS
[43] = system: SF-539 CNS
[44] = system: SK-MEL-2 melanoma
[45] = system: SK-MEL-28 melanoma
[46] = system: SK-MEL-5 melanoma
[47] = system: SK-OV-3 ovarian
[48] = system: SN12C renal
[49] = system: SNB-19 CNS
[50] = system: SNB-75 CNS
[51] = system: SR leukemia
[52] = system: SW-620 colon
[53] = system: T-47D breast
[54] = system: TK-10 renal
[55] = system: U251 CNS
[56] = system: UACC-257 melanoma
[57] = system: UACC-62 melanoma
[58] = system: UO-31 renal

## CN(C)c1ccc2cc(-c3cc4c(oc3=O)-c3ccccc3OC4O)c(=O)oc2c1 (stereo unspecified)
[1]
  GI50: 8.33 µM
  TGI: > 25 µM
[2]
  GI50: 5.67 µM
  TGI: 23.5 µM
[3]
  GI50: 3.22 µM
  TGI: 7.15 µM
[4]
  GI50: 4.29 µM
  TGI: 12.5 µM
[5]
  GI50: 2.11 µM
  TGI: 6.72 µM
[6]
  GI50: 7.07 µM
  TGI: > 25 µM
[7]
  GI50: 2.54 µM
  TGI: 7.95 µM
[8]
  GI50: 3.89 µM
  TGI: 8.19 µM
[9]
  GI50: 5.18 µM
  TGI: 15.9 µM
[10]
  GI50: 2.18 µM
  TGI: > 25 µM
[11]
  GI50: 6.99 µM
  TGI: 20.2 µM
[12]
  GI50: 1.44 µM
  TGI: > 25 µM
[13]
  GI50: 3.81 µM
  TGI: 8.9 µM
[14]
  GI50: 5.7 µM
  TGI: > 25 µM
[15]
  GI50: 3.88 µM
  TGI: 11.6 µM
[16]
  GI50: 7.49 µM
  TGI: 17.7 µM
[17]
  GI50: 7.14 µM
  TGI: 19.6 µM
[18]
  GI50: 5.73 µM
  TGI: 21.8 µM
[19]
  GI50: 5.07 µM
  TGI: 12 µM
[20]
  GI50: 5.2 µM
  TGI: > 25 µM
[21]
  GI50: 6.05 µM
  TGI: 16.2 µM
[22]
  GI50: 3.52 µM
  TGI: 7.3 µM
[23]
  GI50: 4.73 µM
  TGI: 9.31 µM
[24]
  GI50: 5.98 µM
  TGI: 14.6 µM
[25]
  GI50: 3.23 µM
  TGI: 11.2 µM
[26]
  GI50: 4.9 µM
  TGI: 11.5 µM
[27]
  GI50: 3.67 µM
  TGI: 15.9 µM
[28]
  GI50: 0.919 µM
  TGI: 5.51 µM
[29]
  GI50: 3.28 µM
  TGI: 7.08 µM
[30]
  GI50: 1.41 µM
  TGI: 13.4 µM
[31]
  GI50: 4.14 µM
  TGI: 14.3 µM
[32]
  GI50: 3.6 µM
  TGI: 10.2 µM
[33]
  GI50: 3.6 µM
  TGI: 17.1 µM
[34]
  GI50: 5.9 µM
  TGI: > 25 µM
[35]
  GI50: 0.55 µM
  TGI: > 25 µM
[36]
  GI50: 5.35 µM
  TGI: 12.8 µM
[37]
  GI50: 3.2 µM
  TGI: 15.7 µM
[38]
  GI50: 3.85 µM
  TGI: 15.1 µM
[39]
  GI50: 0.439 µM
  TGI: 4.71 µM
[40]
  GI50: 2.69 µM
  TGI: 6.53 µM
[41]
  GI50: 6.26 µM
  TGI: 18.7 µM
[42]
  GI50: 3.59 µM
  TGI: 10.3 µM
[43]
  GI50: 6.83 µM
  TGI: > 25 µM
[44]
  GI50: 3.03 µM
  TGI: 7.53 µM
[45]
  GI50: 8.24 µM
  TGI: > 25 µM
[46]
  GI50: 0.752 µM
  TGI: 4.67 µM
[47]
  GI50: 5.96 µM
  TGI: 19.8 µM
[48]
  GI50: 6.2 µM
  TGI: 19.9 µM
[49]
  GI50: 3.56 µM
  TGI: 12.2 µM
[50]
  GI50: 5.96 µM
  TGI: 24 µM
[51]
  GI50: 3.19 µM
  TGI: 9.96 µM
[52]
  GI50: 15.6 µM
  TGI: > 25 µM
[53]
  GI50: 1.01 µM
  TGI: 8.55 µM
[54]
  GI50: 6.63 µM
  TGI: 19.8 µM
[55]
  GI50: 5.85 µM
  TGI: 15.7 µM
[56]
  GI50: 2.79 µM
  TGI: 10.6 µM
[57]
  GI50: 4.08 µM
  TGI: 8.53 µM
[58]
  GI50: 5.09 µM
  TGI: 12.7 µM
